The record followed here is patent US4474783A, “Cyclopropylmethyl piperazines, the process for preparing the same and their use in therapeutics” (Innothera, priority 1980, dated 1984).

In general, mortality refers to the percentage killed. A higher mortality goes with fewer survivors. As usually defined, the LD50 is the dose expected to kill half of the subjects tested.

Data set [1] is described as follows: acute toxicity, intravenous, male mice (LD50, Litchfield and Wilcoxon). The conditions noted are these: mouse, in vivo; for LD50 at 168 h: i.v., 10 animals per group, 7 days observation, 95% confidence limit in brackets. Here is the method: A toxicological study was also carried out on the compounds according to the invention.
More particularly, the acute toxicity was studied by introduction into the veins of male mice (10 animals per group), E.O.P.S. of the Swiss strain (bred by EVIC-CEBA).
The compounds to be tested were rendered soluble in physiological serum at variable concentrations and the solution obtained injected into the veins in an amount of 10 ml per kg of body weight. Administration was carried out in 20 seconds.
The animals were kept under clinical observation for three hours after administration and then daily for 7 days.
The lethal doses 50 (LD50) were calculated using the method of Litchfield and Wilcoxon (J. Pharmacol. Exp. Therap., 96-99, 1949) on the basis of the different mortality rates observed.

Data set [2] relates to isolated left auricle of the Guinea pig. The data set is described as follows: inotropic activity: contractile force of isolated, electrically stimulated left auricle (Lumley, Broadley and Levy technique; cumulative method of Van Rossum). The conditions noted are these: for Inotropic action pD2 / EC50: 36° C., cumulative concentrations, minimum of three dose-action curves; for Inotropic action α (intrinsic activity) / Emax: relative to dopamine; for Inotropic action α (intrinsic activity): α=1; for EC50 / Emax: Cavia porcellus; for EC50: read-out: Inotropic action pD2 (converted); for Emax: α=1, read-out: Inotropic action α (intrinsic activity). An excerpt: The technique used is that of P. Lumley, K. J. Broadley and G. P. Levy described in Cardiovascular Research, 11, 17-25, 1977. This technique is used to study the β1 cardiac inotrope function; the β1 receptors being cardiac in the Guinea pig as in man, the results obtained with the Guinea pig are applicable to man.
Guinea pigs of either sex are killed by a knock and bled; the left auricle is rapidly removed and immediately immersed in a Kreibs-Henseleit solution, the temperature being thermostatically maintained at 36° C. and aerated by a mixture of O2 and CO2 (95% and 5%). Two linen threads are attached to its ends: one is used to make contact between the auricle and a silver negative stimulating electrode, the other serves to connect the preparation to an isometric myograph (F-50 NARCO) and then to a recording system (Physiograph type M-K III NARCO).
Some 60 minutes are needed to ensure stability of the preparation.
Throughout the test, the auricle is activated electrically by a neurostimulator (Equipment Industriel II): voltage: supramaximum--width: 5 milli/sec.--frequency: 90 to 120 beats per minute.
Agonists, reference substances or compounds according to the invention, are added to the nutrient medium using the cumulative method of Van Rossum (Arch. Inter. Pharmacodyn., 143, 299-330, 1963). After adding each given amount of agonists, three minutes are allowed to pass before a further given amount of the product under study is added according to the method described above. The response of the organ to each concentration was assessed by the resultant increase in contractile force measured in gram. This was expressed as a percentage of the maximum increase (100%) for each compound and a dose-action curve was plotted. The agonist effect was quantified by calculating pD2 (E. J. Ariens and J. M. Van Rossum., Arch. Intern. Pharmacodyn. CX, No. 2, 2, 19 and Arch. Inter. Pharmacodyn. 143, 299-330, 1963) which characterizes the affinity of the compound under test for the receptors.
The agonist effect was also characterized by the intrinsic activity […] which defines the relative power of the agonist with respect to a standard which, in the tests, was dopamine, the intrinsic activity of which is taken arbitrarily to be α=1.
The results obtained are shown in table II below, it being assumed that:
the higher the value of pD2 and the more marked the affinity of the compound under test for the receivers, and
the higher the value of α, the better is the intrinsic activity.

For the molecule `COc1cc(C(=O)N2CCN(CC3CC3)CC2)cc(OC)c1OC` [compound 16], the mortality at 168 h in data set [1] (100 mg/kg i.v.) came out at 30%. Also, in data set [2], the “Inotropic action pD2” value turned out to be 5.06 and the “Inotropic action α (intrinsic activity)” value is listed as 0.52.
In turn, `COc1ccc(OCC(=O)N2CCN(CC3CC3)CC2)cc1` [compound 21] showed an LD50 at 168 h in data set [1] of 115 mg/kg. Moreover, in data set [2], the EC50 is 22.4 µM and the Emax is 69%.
The molecule `COc1ccccc1N1CCN(CC2CC2)CC1` [compound 10] yielded an LD50 at 168 h in data set [1] of 34 mg/kg.
Regarding `OCCN1CCN(CC2CC2)CC1` [Code No. 5], the LD50 at 168 h in data set [1] was 460 mg/kg.
Take `CC1CN(CC2CC2)CCN1CCN1CCCC1` (centres unmarked) [compound 26]: the LD50 at 168 h in data set [1] came out at 158 mg/kg. Moreover, in data set [2], the EC50 was 14.1 µM and the Emax was determined as 32%.
In turn, `CC(CN1CCN(CC2CC2)CC1)C(=O)O` (centres unmarked) [compound 7] registered an LD50 at 168 h in data set [1] of 190 mg/kg.
The same measure, in the same setting: as for `CC1CN(CC2CC2)CCN1CCN(C)C` (centres unmarked) [compound 24], the figure is 200 mg/kg.
`COc1cc(C(=O)N2CCN(CC3CC3)CC2)cc(OC)c1OC` [compound 17] gave an LD50 at 168 h in data set [1] of 245 mg/kg. In data set [2], the “Inotropic action pD2” value was 3.50 and the “Inotropic action α (intrinsic activity)” value is 0.19.
`CC1CN(CC2CC2)CCN1CCCN1CCCC1` (centres unmarked) [compound 31] displayed an LD50 at 168 h in data set [1] of 165 mg/kg. Also, in data set [2], the EC50 was 26.9 µM and the Emax is 25%.
The like results for `CN1CCN(CC2CC2)CC1` [Code No. 2] were, in that order, 320 mg/kg, 112 µM and 48%.
The like results for `CC1CN(CC2CC2)CCN1CCCN1CCCCC1` (centres unmarked) [compound 32] were, in that order, 162 mg/kg, 0.525 µM and 12%.
Taken in the same sequence, the figures for `CC1CN(CC2CC2)CCN1CCCN1CCOCC1` (centres unmarked) [compound 34] were 215 mg/kg, 5.13 µM and 24%.
The molecule `CCN(CC)CCN1CCN(CC2CC2)CC1C` (centres unmarked) [compound 25] had an LD50 at 168 h in data set [1] of 150 mg/kg.
The same measure, in the same setting: in the case of `O=C(C=Cc1cccc(C(F)(F)F)c1)N1CCN(CC2CC2)CC1` [compound 19] it was 95 mg/kg; in that of `CCCCCN1CCN(CC2CC2)CC1` [Code No. 4], 37.5 mg/kg.
Molecule `CC(CN1CCN(CC2CC2)CC1)C(=O)NCc1ccccc1` (centres unmarked) [compound 8] registered an LD50 at 168 h in data set [1] of 245 mg/kg. Also, in data set [2], the EC50 was 53.7 µM and the Emax was found to be 57%.
Take `CC1CN(CC2CC2)CCN1CCN1CCCCCC1` (centres unmarked) [compound 28]: in data set [1], the LD50 at 168 h stood at 95 mg/kg.
For the molecule `CC1CN(CC2CC2)CCN1CCN1CCCCC1` (centres unmarked) [compound 27], the LD50 at 168 h in data set [1] was 155 mg/kg. Also, in data set [2], the EC50 is 47.9 µM and the Emax came to 40%.
Regarding `O=C(COc1ccc(F)cc1)N1CCN(CC2CC2)CC1` [compound 22], the LD50 at 168 h in data set [1] was 100 mg/kg. Further, in data set [2], the EC50 was 17.8 µM and the Emax is 48%.
In the case of `COc1cc(C(=O)N2CCN(CC3CC3)CC2C)cc(OC)c1OC(C)=O` (centres unmarked) [compound 39], the LD50 at 168 h in data set [1] was 225 mg/kg. In data set [2], the EC50 is 25.7 µM and the Emax turned out to be 69%.
`COc1cc(C(=O)N2CCN(CC3CC3)CC2C)cc(OC)c1OC` (centres unmarked) [compound 38]: in data set [1], the LD50 at 168 h is 130 mg/kg.
The same measure, in the same setting: in the case of `c1ccc(CN2CCN(CC3CC3)CC2)cc1` [compound 14] it was 46 mg/kg.
In data set [1], `CC1CN(CC2CC2)CCN1CC1CC1` (centres unmarked) [compound 13] showed an LD50 at 168 h of 104 mg/kg. Moreover, in data set [2], the EC50 was 3.63 µM and the Emax came to 36%.
`CC1CN(CC2CC2)CCN1` (centres unmarked) [compound 23] gave an LD50 at 168 h in data set [1] of 280 mg/kg. In data set [2], the EC50 was 178 µM and the Emax stood at 75%.
Taken in the same sequence, the figures for `CCOC(=O)N1CCN(CC2CC2)CC1` [6a] were 41 mg/kg, 1260 µM and 58%.
Molecule `CC1CN(CC2CC2)CCN1Cc1ccc2c(c1Cl)OCO2` (centres unmarked) [compound 36] had an LD50 at 168 h in data set [1] of 65 mg/kg.
In turn, `O=C(c1ccc2c(c1)OCO2)N1CCN(CC2CC2)CC1` [compound 15] came in with an LD50 at 168 h in data set [1] of 155 mg/kg. Besides, in data set [2], the EC50 was 363 µM and the Emax was 88%.
The like results for `CC(=O)c1ccc(N2CCN(CC3CC3)CC2)cc1` [compound 12] were, in that order, 90 mg/kg, 55 µM and 82%.
For the molecule `CC1CN(CC2CC2)CCN1CCCN1CCCCCC1` (centres unmarked) [compound 33], the LD50 at 168 h in data set [1] was 130 mg/kg.
In turn, `CCN(CC)CCCN1CCN(CC2CC2)CC1C` (centres unmarked) [compound 30] yielded a median lethal dose (LD50) at 168 h in data set [1] of 135 mg/kg.
Still for that read-out and setting: in the case of `CCOC(=O)Oc1c(OC)cc(C(=O)N2CCN(CC3CC3)CC2)cc1OC` [compound 18] it was 225 mg/kg; in that of `CC1CN(CC2CC2)CCN1Cc1csc2ccccc12` (centres unmarked) [compound 37], 40 mg/kg.
For the molecule `C1CC1CN1CCN(CC2CC2)CC1` [3a], the LD50 at 168 h in data set [1] is 110 mg/kg. In data set [2], the EC50 is 30.2 µM and the Emax stood at 69%.
Taken in the same sequence, the figures for `CC1CN(CC2CC2)CCN1Cc1ccc2c(c1)OCO2` (centres unmarked) [compound 35] were 77 mg/kg, 5.25 µM and 17%.
The like results for `COc1cc(C=CC(=O)N2CCN(CC3CC3)CC2)cc(OC)c1OC` [compound 20] were, in that order, 52 mg/kg, 776 µM and 49%.
In data set [1], `FC(F)(F)c1cccc(N2CCN(CC3CC3)CC2)c1` [compound 11] came in with an LD50 at 168 h of 30 mg/kg.
Same read-out and setting: as for `CC1CN(CC2CC2)CCN1CCN1CCOCC1` (centres unmarked) [compound 29], the figure is 250 mg/kg.
